Laboratory results from patent publication US7745462B2, “Quinoline-2-one derivatives for the treatment of airways diseases” (Novartis AG, priority 2003, dated 2010).
Where two headings read alike, the source gives them in different places.

How the values were obtained:
β1-adrenoreceptor = β1-adrenoreceptor (Homo sapiens, UniProt P08588); test: β1-adrenoreceptor binding potency, classical filtration binding assay
From the text: (§1) The β2 agonist activity, onset of action and duration of action of the agents of the invention may be tested using the guinea pig tracheal strip in vitro assay according to the procedure of R. A. Coleman and A. T. Nials, J. Pharmacol. Methods 1989, 21, 71.

β2-adrenoreceptor = β2-adrenoreceptor (Homo sapiens, UniProt P07550); test: β2-adrenoreceptor binding potency, classical filtration binding assay
From the text: as §1

[1] = read-out: Ki (β1) binding potency, classical filtration binding assay, second value of β2/β1 pair
[2] = read-out: Ki (β2) binding potency, classical filtration binding assay, first value of β2/β1 pair

β1-adrenoreceptor, sequence (P08588 whole entry, species assumed): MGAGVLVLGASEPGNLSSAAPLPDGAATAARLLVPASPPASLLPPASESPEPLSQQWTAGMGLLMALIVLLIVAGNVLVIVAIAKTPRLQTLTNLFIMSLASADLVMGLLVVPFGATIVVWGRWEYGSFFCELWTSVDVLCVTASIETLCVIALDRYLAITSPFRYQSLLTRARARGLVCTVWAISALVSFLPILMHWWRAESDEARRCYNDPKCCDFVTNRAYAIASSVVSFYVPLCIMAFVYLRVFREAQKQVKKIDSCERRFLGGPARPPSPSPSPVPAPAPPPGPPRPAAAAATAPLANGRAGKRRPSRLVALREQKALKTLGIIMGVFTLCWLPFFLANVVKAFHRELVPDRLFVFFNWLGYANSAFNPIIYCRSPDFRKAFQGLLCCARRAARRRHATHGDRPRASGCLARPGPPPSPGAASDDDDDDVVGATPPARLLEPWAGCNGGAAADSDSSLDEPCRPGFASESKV

Compound | Ki (β1-adrenoreceptor) [nM] | Ki (β2-adrenoreceptor) [nM] | Ki (β1-adrenoreceptor; [1]) [nM] | Ki (β2-adrenoreceptor; [2]) [nM]
O=c1ccc2c(C(O)CNC3CCCC3C3CCCCC3)ccc(O)c2[nH]1 (mixture of isomers) [Example 33, 5-[R-2-(1S,2S-2-Cyclohexylcyclopentylamino)-1-hydroxyethyl]-8-hydroxy-1H-quinolin-2-one and 5-[R-2-(1R,2R-2-cyclohexylcyclopentylamino)-1-hydroxyethyl]-8-hydroxy-1H-quinolin-2-one] | 491 | 48 |  | 
O=c1ccc2c([C@@H](O)CN[C@H]3Cc4ccc(-c5ccco5)cc4C3)ccc(O)c2[nH]1 [Example 139, 5-[R-2-(S-5-(Furan-2-yl)indan-2-ylamino)-1-hydroxyethyl]-8-hydroxy-1H-quinohnl-2-one] | 4 | 3 |  | 
COCC1(NC[C@H](O)c2ccc(O)c3[nH]c(=O)ccc23)Cc2ccccc2C1 [Example 55, 8-Hydroxy-5-[R-1-hydroxy-2-(2-methoxymethylindan-2-ylamino)-ethyl]-1H-quinolin-2-one] | 384 | 128 |  | 
5-[R-2-(1R,2R-2-Benzylcyclopentylamino)-1-hydroxyethyl]-8-hydroxy-1H-quinolin-2-one [Example 35] |  |  | 6 | 0.4
O=c1ccc2c([C@@H](O)CN[C@@H]3CCc4ccccc43)ccc(O)c2[nH]1 [Example 1, 8-Hydroxy-5-[R-1-hydroxy-2-(R-indan-1-ylamino)ethyl]-1H-quinolin-2-one] | 186 | 26 |  | 
CCC1=C(CC)CC2=C(C1)CC(NC[C@H](O)c1ccc(O)c3[nH]c(=O)ccc13)C2 [Example 30, 5-[R-2-(5,6-Diethyl-2,3,4,7-tetrahydro-1H-inden-2-ylamino)-1-hydroxyethyl]-8-hydroxy-1H-quinolin-2-one] | 132 | 77 |  | 
5-[R-2-((3aS,5R,6aR)-2-Butyloctahydrocyclopenta[c]pyrrol-5-ylamino)-1-hydroxyethyl]-8-hydroxy-1H-quinolin-2-one and 5-[R-2-((3aS,5S,6aR)-2-butyloctahydrocyclopenta[c]pyrrol-5-ylamino)-1-hydroxyethyl]-8-hydroxy-1H-quinolin-2-one [Example 85] |  |  | 380 | 121
CC1c2ccccc2CC1NCC(O)c1ccc(O)c2[nH]c(=O)ccc12 (mixture of isomers) [Example 4, 8-Hydroxy-5-[R-1-hydroxy-2-(1R,2S-1-methylindan-2-ylamino)ethyl]-1H-quinolin-2-one and 8-hydroxy-5-[R-1-hydroxy-2-(1S,2R-1-methylindan-2-ylamino)ethyl]-1H-quinolin-2-one] | 115 | 6 |  | 
CCCCc1ccc2c(c1)CCC2NC[C@H](O)c1ccc(O)c2[nH]c(=O)ccc12 (mixture of isomers) [Example 3, 5-[R-2-(RS-5-butylindan-1-ylamino)-1-hydroxyethyl]-8-hydroxy-1H-quinolin-2-one] | 50 | 54 |  | 
